Reference: PMC9866191, “Novel 9-Benzylaminoacridine Derivatives as Dual Inhibitors of Phosphodiesterase 5 and Topoisomerase II for the Treatment of Colon Cancer” (Molecules, 2023)

Key:
Assay type in all cases: cell-based
[1] = test system: panel of 60 human tumor cell lines; assay: NCI 60-cell line one-dose screen (mean); conditions: mean of the 60 cell lines, single dose 10^−5 M, read-out: Mean % Growth Inhibition
Method in brief: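 At the NCI Developmental Therapeutic Program, each compound is screened once at 10^−5 M across sixty human tumour cell lines. Values are % inhibition.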

A498 = assay: NCI-60 one-dose screen; conditions: Homo sapiens; A498, Renal Cancer panel; single dose 10^−5 M; read-out: Growth inhibition %
A549/ATCC = assay: NCI-60 one-dose screen; conditions: Homo sapiens, Non-small cell lung panel, single dose 10^−5 M, read-out: Growth inhibition %
ACHN = assay: NCI-60 one-dose screen; conditions: Homo sapiens, Renal Cancer panel, single dose 10^−5 M, read-out: Growth inhibition %
BT-549 = assay: NCI-60 one-dose screen; conditions: Homo sapiens; BT-549, Breast Cancer panel; single dose 10^−5 M; read-out: Growth inhibition %
COLO 205 = assay: NCI-60 one-dose screen; conditions: Homo sapiens; COLO 205, Colon Cancer panel; single dose 10^−5 M; read-out: Growth inhibition %
EKVX = assay: NCI-60 one-dose screen; conditions: Homo sapiens, Non-small cell lung panel, single dose 10^−5 M, read-out: Growth inhibition %
HCC-2998 = assay: NCI-60 one-dose screen; conditions: Homo sapiens; HCC-2998, Colon Cancer panel; single dose 10^−5 M; read-out: Growth inhibition %
HCT-116 = assay: NCI-60 one-dose screen; conditions: Homo sapiens, read-out: Growth inhibition %
HOP-62 = assay: NCI-60 one-dose screen; conditions: Homo sapiens; HOP-62, Non-small cell lung panel; single dose 10^−5 M; read-out: Growth inhibition %
HOP-92 = assay: NCI-60 one-dose screen; conditions: Homo sapiens; HOP-92, Non-small cell lung panel; single dose 10^−5 M; read-out: Growth inhibition %
K-562 = assay: NCI-60 one-dose screen; conditions: Homo sapiens, K562; K-562, Leukemia panel; single dose 10^−5 M; read-out: Growth inhibition %
M14 = assay: NCI-60 one-dose screen; conditions: Homo sapiens; M14, Melanoma panel; single dose 10^−5 M; read-out: Growth inhibition %
MALME-3M = assay: NCI-60 one-dose screen; conditions: Homo sapiens, Melanoma panel, single dose 10^−5 M, read-out: Growth inhibition %
MDA-MB-231/ATCC = assay: NCI-60 one-dose screen; conditions: Homo sapiens, Breast Cancer panel, single dose 10^−5 M, read-out: Growth inhibition %
MOLT-4 = assay: NCI-60 one-dose screen; conditions: Homo sapiens; MOLT-4, Leukemia panel; single dose 10^−5 M; read-out: Growth inhibition %
NCI-H226 = assay: NCI-60 one-dose screen; conditions: Homo sapiens; NCI-H226, Non-small cell lung panel; single dose 10^−5 M; read-out: Growth inhibition %
NCI-H23 = assay: NCI-60 one-dose screen; conditions: Homo sapiens; NCI-H23, Non-small cell lung panel; single dose 10^−5 M; read-out: Growth inhibition %
NCI-H460 = assay: NCI-60 one-dose screen; conditions: Homo sapiens; NCI-H460, Non-small cell lung panel; single dose 10^−5 M; read-out: Growth inhibition %
NCI-H522 = assay: NCI-60 one-dose screen; conditions: Homo sapiens; NCI-H522, Non-small cell lung panel; single dose 10^−5 M; read-out: Growth inhibition %
OVCAR-4 = assay: NCI-60 one-dose screen; conditions: Homo sapiens; OVCAR-4, Ovarian Cancer panel; single dose 10^−5 M; read-out: Growth inhibition %
OVCAR-8 = assay: NCI-60 one-dose screen; conditions: Homo sapiens; OVCAR-8, Ovarian Cancer panel; single dose 10^−5 M; read-out: Growth inhibition %
RXF 393 = assay: NCI-60 one-dose screen; conditions: Homo sapiens; RXF 393, Renal Cancer panel; single dose 10^−5 M; read-out: Growth inhibition %
SF-539 = assay: NCI-60 one-dose screen; conditions: Homo sapiens; SF-539, CNS Cancer panel; single dose 10^−5 M; read-out: Growth inhibition %
SK-MEL-5 = assay: NCI-60 one-dose screen; conditions: Homo sapiens; SK-MEL-5, Melanoma panel; single dose 10^−5 M; read-out: Growth inhibition %
SK-OV-3 = assay: NCI-60 one-dose screen; conditions: Homo sapiens; SK-OV-3, Ovarian Cancer panel; single dose 10^−5 M; read-out: Growth inhibition %
SN12C = assay: NCI-60 one-dose screen; conditions: Homo sapiens, Renal Cancer panel, single dose 10^−5 M, read-out: Growth inhibition %
SNB-75 = assay: NCI-60 one-dose screen; conditions: Homo sapiens; SNB-75, CNS Cancer panel; single dose 10^−5 M; read-out: Growth inhibition %
SW-620 = assay: NCI-60 one-dose screen; conditions: Homo sapiens; SW-620, Colon Cancer panel; single dose 10^−5 M; read-out: Growth inhibition %
U251 = assay: NCI-60 one-dose screen; conditions: Homo sapiens, U-251; U251, CNS Cancer panel; single dose 10^−5 M; read-out: Growth inhibition %
UACC-257 = assay: NCI-60 one-dose screen; conditions: Homo sapiens; UACC-257, Melanoma panel; single dose 10^−5 M; read-out: Growth inhibition %
UO-31 = assay: NCI-60 one-dose screen; conditions: Homo sapiens; UO-31, Renal Cancer panel; single dose 10^−5 M; read-out: Growth inhibition %

| Structure (SMILES) | inhibition at 10 µM [1] [%] | inhibition at 10 µM (A498) [%] | inhibition at 10 µM (A549/ATCC) [%] | inhibition at 10 µM (ACHN) [%] | inhibition at 10 µM (BT-549) [%] | inhibition at 10 µM (COLO 205) [%] | inhibition at 10 µM (EKVX) [%] | inhibition at 10 µM (HCC-2998) [%] | inhibition at 10 µM (HCT-116) [%] | inhibition at 10 µM (HOP-62) [%] | inhibition at 10 µM (HOP-92) [%] | inhibition at 10 µM (K-562) [%] | inhibition at 10 µM (M14) [%] | inhibition at 10 µM (MALME-3M) [%] | inhibition at 10 µM (MDA-MB-231/ATCC) [%] | inhibition at 10 µM (MOLT-4) [%] | inhibition at 10 µM (NCI-H226) [%] | inhibition at 10 µM (NCI-H23) [%] | inhibition at 10 µM (NCI-H460) [%] | inhibition at 10 µM (NCI-H522) [%] | further results |
| --- | --- | --- | --- | --- | --- | --- | --- | --- | --- | --- | --- | --- | --- | --- | --- | --- | --- | --- | --- | --- | --- |
| c1ccc(CCNc2c3ccccc3nc3ccccc23)cc1 [Compound 23, Acridin-9-yl-phenethyl-amine] | 60.7 | 105 | 67.3 | 78.4 | 26.4 | 78.8 | 63.7 | 58.6 | 83.5 | 44.9 | 102 | 75 | 57.3 | 42.9 | 56.7 | 75.4 | 43.7 | 61.4 | 84.7 | 60.2 | inhibition at 10 µM (OVCAR-4): 65%; inhibition at 10 µM (OVCAR-8): 61.7%; inhibition at 10 µM (RXF 393): 64.7%; inhibition at 10 µM (SF-539): 71.9%; inhibition at 10 µM (SK-MEL-5): 35.3%; inhibition at 10 µM (SK-OV-3): 37.4%; inhibition at 10 µM (SN12C): 66.9%; inhibition at 10 µM (SNB-75): 32.4%; inhibition at 10 µM (SW-620): 71.7%; inhibition at 10 µM (U251): 58.9%; inhibition at 10 µM (UACC-257): 44.8%; inhibition at 10 µM (UO-31): 75.8% |
| Cc1cccc(CNc2c3ccccc3nc3ccccc23)c1 [Compound 3, Acridin-9-yl-(3-methylbenzyl)-amine] | 77.2 | 102 | 77.4 | 84.2 | 32.7 | 116 | 55.5 | 96.4 | 90.2 | 59.6 | 93 | 98.1 | 77.2 | 85.9 | 61.3 | 97.7 | 59.4 | 70.3 | 91.3 | 47.9 | inhibition at 10 µM (OVCAR-4): 72.1%; inhibition at 10 µM (OVCAR-8): 79.7%; inhibition at 10 µM (RXF 393): 102%; inhibition at 10 µM (SF-539): 88.3%; inhibition at 10 µM (SK-MEL-5): 80.2%; inhibition at 10 µM (SK-OV-3): 54.7%; inhibition at 10 µM (SN12C): 73.9%; inhibition at 10 µM (SNB-75): 63%; inhibition at 10 µM (SW-620): 82.8%; inhibition at 10 µM (U251): 76.3%; inhibition at 10 µM (UACC-257): 63.8%; inhibition at 10 µM (UO-31): 85.3% |
| COc1ccc(CNc2c3ccccc3nc3ccccc23)c(OC)c1 [Compound 17, Acridin-9-yl-(2,4-dimethoxybenzyl)-amine] | 60.8 | 111 | 64.8 | 74.2 | 33.3 | 75.4 | 48.9 | 64.4 | 87.2 | 52.8 | 114 | 86.8 | 56.2 | 33 | 56.4 | 81.5 | 53.7 | 65.1 | 83.3 | 59.4 | inhibition at 10 µM (OVCAR-4): 60.3%; inhibition at 10 µM (OVCAR-8): 62.2%; inhibition at 10 µM (RXF 393): 66.6%; inhibition at 10 µM (SF-539): 85.4%; inhibition at 10 µM (SK-MEL-5): 29.6%; inhibition at 10 µM (SK-OV-3): 36.7%; inhibition at 10 µM (SN12C): 69%; inhibition at 10 µM (SNB-75): 35.5%; inhibition at 10 µM (SW-620): 79.3%; inhibition at 10 µM (U251): 58.2%; inhibition at 10 µM (UACC-257): 25.4%; inhibition at 10 µM (UO-31): 72% |
| COc1ccccc1CNc1c2ccccc2nc2ccccc12 [Compound 5, Acridin-9-yl-(2-methoxybenzyl)-amine] | 60.8 | 86.7 | 65.8 | 77.3 | 23 | 87.2 | 34.3 | 61.1 | 87.3 | 55.5 | 81.8 | 89.9 | 59.1 | 54.1 | 42.4 | 79.3 | 60.1 | 69.1 | 89.8 | 37.6 | inhibition at 10 µM (OVCAR-4): 57.8%; inhibition at 10 µM (OVCAR-8): 68.1%; inhibition at 10 µM (RXF 393): 69.4%; inhibition at 10 µM (SF-539): 78.8%; inhibition at 10 µM (SK-MEL-5): 40.8%; inhibition at 10 µM (SK-OV-3): 38.6%; inhibition at 10 µM (SN12C): 65.3%; inhibition at 10 µM (SNB-75): 36.5%; inhibition at 10 µM (SW-620): 77.9%; inhibition at 10 µM (U251): 61.4%; inhibition at 10 µM (UACC-257): 35.9%; inhibition at 10 µM (UO-31): 66.3% |
